Reference: patent publication US20230146455A1, “TREATMENT OF INFLAMMATORY DISEASES WITH PEPTIDES AND PHARMACEUTICAL COMPOSITIONS” (Yuyu Pharma, Inc., priority 2020, published 2023)
Where “and” joins values, the source holds several entries; their conditions need not be identical. Equal values may be shown once. Where a SMILES comes first, the peptide text is derived from it. [ ]: non-standard residue; d: D form. Hyp = O=C(O)[C@@H]1C[C@@H](O)CN1

Tested on: IL-1 beta/IL-1F2
Test: Example 9 Luminex, LPS hPBMCs: IL-1 beta/IL-1F2
Type: cell-based, human
Experimental: Treatment Human PBMCs were pretreated with YY-101, YDE-011 and YDE-043 or reference compound; Xiidra® at various concentration (ranging from 1 nM to 100 uM) for 2 h before stimulation. An equal volume of 0.5% DMSO was used as a vehicle control. Then, the cells were treated with LPS at 5 ug/ml. The supernatants from treated cells were harvested at 24 h and placed in a 96 well for Luminex cytokine & chemokine profiling using a Luminex 200 multiplex assay (Luminex; R&D system, USA).
The main study arm with triplicate wells per group in a 24-well plate: • 1. Blank • 2. PBMC: 0.5% DMSO • 3. PBMC+LPS (5 ug/ml) • 4. PBMC+YY-101 100 uM • 5. PBMC+YY-101 10 uM • 6. PBMC+YY-101 1 uM • 7. PBMC+YY-101 0.1 uM • 8. PBMC+YY-101 0.01 uM • 9. PBMC+LPS (5 ug/ml)+Xiidra®100 uM • 10. PBMC+LPS (5 ug/ml)+Xiidra® 10 uM • 11. PBMC+LPS (5 ug/ml)+Xiidra® 1 uM • 12. PBMC+LPS (5 ug/ml)+Xiidra®0.1 uM • 13. PBMC+LPS (5 ug/ml)+Xiidra®0.01 uM • 14. PBMC+LPS (5 ug/ml)+Xiidra®0.001 uM • 15. PBMC+LPS (5 ug/ml)+YY-101 100 uM • 16. PBMC+LPS (5 ug/ml)+YY-101 10 uM • 17. PBMC+LPS (5 ug/ml)+YY-101 1 uM • 18. PBMC+LPS (5 ug/ml)+YY-101 0.1 uM • 19. PBMC+LPS (5 ug/ml)+YY-101 0.01 uM • 20. PBMC+LPS (5 ug/ml)+YY-101 0.001 uM • 21. PBMC+LPS (5 ug/ml)+YDE-011 100 uM • 22. PBMC+LPS (5 ug/ml)+YDE-011 10 uM • 23. PBMC+LPS (5 ug/ml)+YDE-011 1 uM • 24. PBMC+LPS (5 ug/ml)+YDE-011 0.1 uM • 25. PBMC+LPS (5 ug/ml)+YDE-011 0.01 uM • 26. PBMC+LPS (5 ug/ml)+YDE-011 0.001 uM • 27. PBMC+LPS (5 ug/ml)+YDE-043 100 uM • 28. PBMC+LPS (5 ug/ml)+YDE-043 10 uM • 29. PBMC+LPS (5 ug/ml)+YDE-043 1 uM • 30. PBMC+LPS (5 ug/ml)+YDE-043 0.1 uM • 31. PBMC+LPS (5 ug/ml)+YDE-043 0.01 uM • 32. PBMC+LPS (5 ug/ml)+YDE-043 0.001 uM
Multiplex assay was used to measure 30 cytokines and chemokines. The 1:2, 1:10 and 1:200 diluted cell supernatant and serial dilution of the standard were dispensed into a 96 well plate at 50 ul/well. Then, the pre-mixed cocktail of antibody-coated magnetic beads was dispensed at 50 ul/well and incubated at room temperature for 2 h in a horizontal orbital microplate shaker at 800±500 rpm. The beads were washed using a magnetic device to prevent loss. The biotin-antibody was dispensed in 50 ul of each well and incubated at room temperature for 1 h in a shaker at 800±500 rpm. After washing, streptavidin-PE was added at 50 ul/well and incubated at room temperature for 30 min in a shaker under the same conditions. Finally, after washing, wash buffer (100 ul/well) was added to the plate and incubated in a shaker for 2 min. The Luminex™ 200 setting were set according to the manufacturer's protocol. The data was calculated with a standard five-parameter logistic nonlinear regression analysis of the data (xPonent software 4.2, USA). The levels of cytokine/chemokine are normalized to the live cell counts (1×10^5 cells/mL) and presented as concentrations per mL (pg/mL or ng/mL).

[1] = PBMC + LPS(5 ug/ml) + test article 0.001 uM, Mean
[2] = PBMC + LPS(5 ug/ml) + test article 0.001 uM, single replicates
[3] = PBMC + LPS(5 ug/ml) + test article 0.01 uM, Mean
[4] = PBMC + LPS(5 ug/ml) + test article 0.01 uM, single replicates
[5] = PBMC + LPS(5 ug/ml) + test article 0.1 uM, Mean
[6] = PBMC + LPS(5 ug/ml) + test article 0.1 uM, single replicates
[7] = PBMC + LPS(5 ug/ml) + test article 1 uM, Mean
[8] = PBMC + LPS(5 ug/ml) + test article 1 uM, single replicates
[9] = PBMC + LPS(5 ug/ml) + test article 10 uM, Mean
[10] = PBMC + LPS(5 ug/ml) + test article 10 uM, single replicates
[11] = PBMC + LPS(5 ug/ml) + test article 100 uM, Mean
[12] = PBMC + LPS(5 ug/ml) + test article 100 uM, single replicates
[13] = PBMC + test article 0.01 uM, no LPS, Mean
[14] = PBMC + test article 0.01 uM, no LPS, single replicates
[15] = PBMC + test article 0.1 uM, no LPS, Mean
[16] = PBMC + test article 0.1 uM, no LPS, single replicates
[17] = PBMC + test article 1 uM, no LPS, Mean
[18] = PBMC + test article 1 uM, no LPS, single replicates
[19] = PBMC + test article 10 uM, no LPS, Mean
[20] = PBMC + test article 10 uM, no LPS, single replicates
[21] = PBMC + test article 100 uM, no LPS, Mean
[22] = PBMC + test article 100 uM, no LPS, single replicates

With CC(C)C[C@H](NC(=O)CNC(=O)[C@H](CC(=O)O)NC(=O)[C@H](CCC(N)=O)NC(=O)CNC(=O)[C@@H]1C[C@@H](O)CN1)C(=O)N[C@@H](C)C(=O)NCC(=O)N1CCC[C@H]1C(=O)N[C@@H](CCCCN)C(=O)O [YY-101] (H-[Hyp]GQDGLAGPK-OH; N-terminus and C-terminus assumed) the Concentration [1] was 7614.6 pg/mL, the MFI [1] was 1976.7 and the conc/live cell [1] was 1188.6 pg/10^5. The Concentration [2] was 7907.5 pg/mL and 7935.5 pg/mL and 7000.7 pg/mL, the MFI [2] was 2055.5 and 2063.0 and 1811.5 and the conc/live cell [2] was 1387.3 pg/10^5 and 1117.7 pg/10^5 and 1060.7 pg/10^5. The Concentration [3] was 8390.1 pg/mL, the MFI [3] was 2184.3 and the conc/live cell [3] was 1361.7 pg/10^5. For the same molecule, the Concentration [4] was 8405.7 pg/mL and 8552.3 pg/mL and 8212.4 pg/mL, the MFI [4] was 2188.5 and 2227.5 and 2137.0 and the conc/live cell [4] was 1313.4 pg/10^5 and 1425.4 pg/10^5 and 1346.3 pg/10^5. For the same molecule, the Concentration [5] was 8511.2 pg/mL, the MFI [5] was 2216.5 and the conc/live cell [5] was 1463.1 pg/10^5. The Concentration [6] was 8266.8 pg/mL and 8740.8 pg/mL and 8526.0 pg/mL, the MFI [6] was 2151.5 and 2277.5 and 2220.5 and the conc/live cell [6] was 1333.4 pg/10^5 and 1680.9 pg/10^5 and 1375.2 pg/10^5. It also gave a Concentration [7] of 7838.4 pg/mL, an MFI [7] of 2036.8 and a conc/live cell [7] of 1203.9 pg/10^5. The Concentration [8] was 8218.0 pg/mL and 7821.7 pg/mL and 7475.4 pg/mL, the MFI [8] was 2138.5 and 2032.5 and 1939.5 and the conc/live cell [8] was 1304.4 pg/10^5 and 1101.6 pg/10^5 and 1205.7 pg/10^5. For the same molecule, the Concentration [9] was 8659.2 pg/mL, the MFI [9] was 2255.8 and the conc/live cell [9] was 1311.5 pg/10^5. The Concentration [10] was 8518.5 pg/mL and 8816.3 pg/mL and 8642.7 pg/mL, the MFI [10] was 2218.5 and 2297.5 and 2251.5 and the conc/live cell [10] was 1419.7 pg/10^5 and 1377.5 pg/10^5 and 1137.2 pg/10^5. The Concentration [11] was 12179.5 pg/mL, the MFI [11] was 3163.2 and the conc/live cell [11] was 2105.8 pg/10^5. For the same molecule, the Concentration [12] was 12944.3 pg/mL and 11783.1 pg/mL and 11811.0 pg/mL, the MFI [12] was 3353.5 and 3064.5 and 3071.5 and the conc/live cell [12] was 2054.7 pg/10^5 and 1900.5 pg/10^5 and 2362.2 pg/10^5. It also gave a Concentration [13] of 5.5 pg/mL, an MFI [13] of 2.5 and a conc/live cell [13] of 0.6 pg/10^5. For the same molecule, the Concentration [14] was 5.5 pg/mL, the MFI [14] was 0.5 and 4.5 and the conc/live cell [14] was 0.0 pg/10^5 and 1.2 pg/10^5. For the same molecule, the MFI [15] was 1.5, the conc/live cell [15] was 0.0 pg/10^5 and the MFI [16] was 1.5. The conc/live cell [16] was 0.0 pg/10^5, the MFI [17] was 2.0 and the conc/live cell [17] was 0.0 pg/10^5. The MFI [18] was 3.5 and 0.5, the conc/live cell [18] was 0.0 pg/10^5 and the Concentration [19] was 122.9 pg/mL. The MFI [19] was 13.0, the conc/live cell [19] was 9.6 pg/10^5 and the Concentration [20] was 122.9 pg/mL. For the same molecule, the MFI [20] was 23.5 and 2.5, the conc/live cell [20] was 19.2 pg/10^5 and 0.0 pg/10^5 and the Concentration [21] was 159.6 pg/mL. For the same molecule, the MFI [21] was 31.5, the conc/live cell [21] was 24.7 pg/10^5 and the Concentration [22] was 278.4 pg/mL and 40.7 pg/mL. The MFI [22] was 53.5 and 9.5, the conc/live cell [22] was 43.5 pg/10^5 and 5.8 pg/10^5 and the “LPS-induced IL-I3 levels (in words)” value (at 100.iM, LPS 5 ug/mL 24 hrs) was “further increased”.
CC(C)C[C@H](NC(=O)[C@H](CCC(N)=O)NC(=O)CNC(=O)[C@@H]1C[C@@H](O)CN1)C(=O)NCC(=O)O [YDE-043] (H-[Hyp]GQLG-OH; N-terminus and C-terminus assumed) showed a Concentration [1] of 6632.8 pg/mL, an MFI [1] of 1711.8 and a conc/live cell [1] of 1343.9 pg/10^5. The Concentration [2] was 6369.5 pg/mL and 7037.7 pg/mL and 6491.1 pg/mL, the MFI [2] was 1640.5 and 1821.5 and 1673.5 and the conc/live cell [2] was 1447.6 pg/10^5 and 1173.0 pg/10^5 and 1411.1 pg/10^5. The Concentration [3] was 6569.2 pg/mL, the MFI [3] was 1694.7 and the conc/live cell [3] was 1253.9 pg/10^5. The Concentration [4] was 6432.1 pg/mL and 6655.2 pg/mL and 6620.2 pg/mL, the MFI [4] was 1657.5 and 1718.0 and 1708.5 and the conc/live cell [4] was 1429.4 pg/10^5 and 1008.4 pg/10^5 and 1324.0 pg/10^5. It also gave a Concentration [5] of 6324.2 pg/mL, an MFI [5] of 1628.2 and a conc/live cell [5] of 1172.5 pg/10^5. The Concentration [6] was 6049.3 pg/mL and 6384.2 pg/mL and 6539.0 pg/mL, the MFI [6] was 1553.5 and 1644.5 and 1686.5 and the conc/live cell [6] was 1209.9 pg/10^5 and 1140.0 pg/10^5 and 1167.7 pg/10^5. It also gave a Concentration [7] of 6195.3 pg/mL, an MFI [7] of 1593.2 and a conc/live cell [7] of 1173.7 pg/10^5. For the same molecule, the Concentration [8] was 6303.2 pg/mL and 5942.7 pg/mL and 6340.0 pg/mL, the MFI [8] was 1622.5 and 1524.5 and 1632.5 and the conc/live cell [8] was 1086.8 pg/10^5 and 1238.1 pg/10^5 and 1196.2 pg/10^5. It also gave a Concentration [9] of 6556.9 pg/mL, an MFI [9] of 1691.3 and a conc/live cell [9] of 1214.7 pg/10^5. For the same molecule, the Concentration [10] was 6382.4 pg/mL and 6634.9 pg/mL and 6653.4 pg/mL, the MFI [10] was 1644.0 and 1712.5 and 1717.5 and the conc/live cell [10] was 1227.4 pg/10^5 and 1228.7 pg/10^5 and 1188.1 pg/10^5. It also gave a Concentration [11] of 8209.5 pg/mL, an MFI [11] of 2135.8 and a conc/live cell [11] of 1304.8 pg/10^5. For the same molecule, the Concentration [12] was 8744.5 pg/mL and 7674.4 pg/mL, the MFI [12] was 2278.5 and 1993.0 and the conc/live cell [12] was 1410.4 pg/10^5 and 1199.1 pg/10^5.
